Laboratory results from the NIST ThermoML archive (doi:10.1021/acs.jced.7b00106).

Settings: Liquid, Hot wire method

FC(F)(F)/C=C/Cl [(E)-1-chloro-3,3,3-trifluoroprop-1-ene]
Settings	thermal conductivity [W/m/K]
203.56 K, 10316 kPa	0.1156
203.65 K, 10337 kPa	0.1151
203.67 K, 219 kPa	0.1135
203.67 K, 10365 kPa	0.116
203.68 K, 5190 kPa	0.1132
203.68 K, 10370 kPa	0.1166
203.76 K, 231 kPa	0.113
203.76 K, 10344 kPa	0.1159
203.77 K, 5194 kPa	0.1133
203.77 K, 10372 kPa	0.1156
203.91 K, 10339 kPa	0.1163
204.02 K, 228 kPa	0.1135
204.02 K, 5185 kPa	0.114
204.02 K, 10301 kPa	0.1153
204.02 K, 10366 kPa	0.1154
204.02 K, 10378 kPa	0.1158
204.12 K, 10382 kPa	0.1152
204.13 K, 232 kPa	0.1125
204.13 K, 5176 kPa	0.1137
204.13 K, 10374 kPa	0.1153
204.3 K, 10296 kPa	0.1148
204.4 K, 223 kPa	0.1124
204.4 K, 5171 kPa	0.1142
204.4 K, 10360 kPa	0.1158
204.41 K, 10375 kPa	0.1154
204.43 K, 10300 kPa	0.1153
204.53 K, 10368 kPa	0.1152
204.54 K, 5176 kPa	0.1138
204.54 K, 10353 kPa	0.115
204.55 K, 227 kPa	0.1121
204.71 K, 10305 kPa	0.115
204.81 K, 10351 kPa	0.1146
204.81 K, 10361 kPa	0.1153
204.82 K, 232 kPa	0.1125
204.82 K, 5179 kPa	0.1141
204.88 K, 10317 kPa	0.1155
204.97 K, 10365 kPa	0.1148
204.98 K, 5182 kPa	0.1135
204.98 K, 10343 kPa	0.1151
204.99 K, 223 kPa	0.1121
205.17 K, 10310 kPa	0.1155
205.25 K, 10392 kPa	0.1152
205.26 K, 10349 kPa	0.1152
205.27 K, 5170 kPa	0.1139
205.29 K, 230 kPa	0.1124
205.36 K, 10304 kPa	0.1149
205.44 K, 10383 kPa	0.1147
205.45 K, 10380 kPa	0.1147
205.46 K, 5164 kPa	0.1134
205.48 K, 239 kPa	0.1121
222.19 K, 65394 kPa	0.1242
222.21 K, 54365 kPa	0.1216
222.27 K, 44671 kPa	0.1193
222.28 K, 65396 kPa	0.1238
222.3 K, 35555 kPa	0.1171
222.32 K, 26424 kPa	0.1148
222.32 K, 54366 kPa	0.1215
222.35 K, 17783 kPa	0.1123
222.37 K, 44672 kPa	0.1196
222.39 K, 449 kPa	0.1078
222.39 K, 8723 kPa	0.1103
222.4 K, 35559 kPa	0.1171
222.42 K, 26428 kPa	0.1148
222.45 K, 17781 kPa	0.1124
222.49 K, 8727 kPa	0.1099
222.5 K, 449 kPa	0.1068
222.54 K, 65394 kPa	0.1248
222.57 K, 54367 kPa	0.1222
222.62 K, 44672 kPa	0.1196
222.67 K, 35561 kPa	0.1177
222.69 K, 54366 kPa	0.1219
222.7 K, 26430 kPa	0.1145
222.73 K, 17781 kPa	0.1124
222.75 K, 44676 kPa	0.1192
222.77 K, 8729 kPa	0.1105
222.79 K, 453 kPa	0.107
222.79 K, 26430 kPa	0.1147
222.79 K, 35560 kPa	0.1173
222.86 K, 17785 kPa	0.112
222.91 K, 8723 kPa	0.1098
222.91 K, 65386 kPa	0.1248
222.92 K, 456 kPa	0.1067
222.97 K, 54368 kPa	0.122
223.03 K, 44680 kPa	0.1196
223.06 K, 65383 kPa	0.1239
223.07 K, 35560 kPa	0.1178
223.11 K, 26433 kPa	0.1152
223.11 K, 54368 kPa	0.122
223.14 K, 17782 kPa	0.1124
223.17 K, 44685 kPa	0.1194
223.21 K, 8729 kPa	0.1098
223.22 K, 35566 kPa	0.1174
223.23 K, 454 kPa	0.1071
223.26 K, 26433 kPa	0.1147
223.3 K, 17785 kPa	0.112
223.34 K, 65385 kPa	0.1243
223.36 K, 8728 kPa	0.1097
223.39 K, 453 kPa	0.1069
223.39 K, 54369 kPa	0.1224
223.46 K, 44687 kPa	0.1198
223.5 K, 65379 kPa	0.1241
223.51 K, 35560 kPa	0.1174
223.56 K, 26434 kPa	0.1151
223.56 K, 54369 kPa	0.1215
223.6 K, 17788 kPa	0.1125
223.63 K, 44686 kPa	0.1196
223.67 K, 8730 kPa	0.1101
223.68 K, 35563 kPa	0.1172
223.71 K, 455 kPa	0.1073
223.73 K, 26431 kPa	0.1148
223.78 K, 17788 kPa	0.1121
223.79 K, 65376 kPa	0.1246
223.85 K, 54372 kPa	0.122
223.86 K, 8734 kPa	0.1093
223.89 K, 457 kPa	0.1068
223.93 K, 44690 kPa	0.1197
223.98 K, 35565 kPa	0.1178
223.98 K, 65378 kPa	0.124
224.04 K, 26437 kPa	0.1151
224.05 K, 54371 kPa	0.1216
224.1 K, 17783 kPa	0.1124
224.13 K, 44694 kPa	0.1195
224.18 K, 8734 kPa	0.1094
224.19 K, 35567 kPa	0.1173
224.23 K, 457 kPa	0.107
224.25 K, 26439 kPa	0.1146
224.31 K, 17787 kPa	0.1119
224.39 K, 8734 kPa	0.1092
224.45 K, 456 kPa	0.1066
241.66 K, 13434 kPa	0.1054
241.67 K, 7098 kPa	0.1036
241.69 K, 586 kPa	0.1011
241.75 K, 13448 kPa	0.1051
241.78 K, 7107 kPa	0.1033
241.79 K, 578 kPa	0.1008
241.92 K, 53262 kPa	0.1169
241.93 K, 63858 kPa	0.1199
241.94 K, 36063 kPa	0.1121
241.94 K, 43857 kPa	0.1153
241.99 K, 28061 kPa	0.1109
242.03 K, 20422 kPa	0.1077
242.03 K, 53260 kPa	0.1171
242.03 K, 63849 kPa	0.1192
242.04 K, 43848 kPa	0.114
